Measurements published in patent US10253002B2, “Compounds and methods of treating infections” (Neoculi Pty Ltd., priority 2013, dated 2019).

Tests used:
S. pneumoniae isolates = experiment: Disk diffusion susceptibility (CLSI/EUCAST), Example 5; type: cell-based, Streptococcus pneumoniae
In short: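 Susceptibility to 12 antimicrobials was categorised (S/I/R) using CLSI breakpoints from zones of complete inhibition, read thrice to the nearest millimetre with the mode taken. Incubation was 16–24 h, 37 °C, 5% CO2.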

E. faecalis USA01 = experiment: Kill kinetics assay, Example 8; type: cell-based, Enterococcus faecalis
Method: (§1) S. aureus KC01 and E. faecalis USA01, not determined to be MRSA or VRE, respectively, were grown overnight on Columbia SBA at 37° C. A few colonies of bacteria were then suspended in CAMHB (cation-adjusted Mueller Hinton broth) and adjusted to OD600 of 0.08 to 0.10. The bacterial suspension was diluted 1:10. […] The tubes were incubated at 37° C., with constant shaking. In order to determine the number of viable bacteria present at various time points, a 100 μL aliquot was removed from each tube and diluted. Then, 100 μL of each dilution were spread onto colony count agar, in duplicate, and incubated for 48 h at 37° C. After 24 h the numbers of colonies present on each plate were counted and therefore the number of viable bacteria present in the original suspension enumerated. Plates were re-checked after 48 hours.

S. pneumoniae strain D39 = experiment: MBC time kill studies (relative MBC at time points); type: cell-based, Streptococcus pneumoniae; conditions: within 5 h
Description: MBC kill kinetics assays involved the preparation of three 96 well microtitre trays.

S. aureus KC01 = experiment: Kill kinetics assay, Example 8; type: cell-based, Staphylococcus aureus
Method: as §1

[1] = tested on: protein synthesis in S. aureus ATCC 29213; experiment: Macromolecular synthesis assay: protein synthesis ([3H] leucine); type: cell-based, Staphylococcus aureus; conditions: at the MIC
Method: Cells were grown at 35° C. overnight on Trypticase Soy agar. A colony from the plate was used to inoculate 10 ml of Mueller Hinton broth II (MHBII), and the culture was grown to early exponential growth phase (OD600==0.2 to 0.3) while incubating in a shaker at 35° C. and 200 rpm.
When cells reached early exponential phase, 100 μL of culture was added to triplicate wells containing various concentrations of test compound or control antibiotics (5 μL) at 20× the final concentration in 100% DMSO. A 5% DMSO treated culture served as the “no drug” control for all experiments. Cells were added in MHBII at 105% to account for the volume of drug added to each reaction or in M9 minimal medium for protein synthesis reactions. Following 15 min incubation at room temperature, either [^3H] thymidine (DNA synthesis), [^3H] uridine (RNA synthesis) or [^3H] leucine (protein synthesis) was added at 0.5-1.0 μCi per reaction, depending on the experiment. Reactions were allowed to proceed at room temperature for 15-30 min and then stopped by adding 12 μL of cold 5% trichloroacetic acid (TCA) or 5% TCA/2% casamino acids (protein synthesis only). […] After washing three times with 5 ml of cold 5% TCA, the filters were rinsed two times with 5 mL 100% ethanol, allowed to dry, and then counted using a Beckman LS3801 liquid scintillation counter.

CC1(C)S[C@@H]2[C@H](NC(=O)[C@H](N)c3ccccc3)C(=O)N2[C@H]1C(=O)O [Ampicillin]
disk diffusion zone diameter (S. pneumoniae isolates; A66.1): 37 mm
disk diffusion zone diameter (S. pneumoniae isolates; D39): 37 mm
disk diffusion zone diameter (S. pneumoniae isolates; EF3030): 38 mm
disk diffusion zone diameter (S. pneumoniae isolates; L82016): 41 mm
disk diffusion zone diameter (S. pneumoniae isolates; P9): 33 mm
disk diffusion zone diameter (S. pneumoniae isolates; P21): 40 mm
disk diffusion zone diameter (S. pneumoniae isolates; TIGR4): 37 mm
disk diffusion zone diameter (S. pneumoniae isolates; WCH16): 41 mm
disk diffusion zone diameter (S. pneumoniae isolates; WCH43): 36 mm
disk diffusion zone diameter (S. pneumoniae isolates; WCH46): 37 mm
disk diffusion zone diameter (S. pneumoniae isolates; WCH57): 43 mm
disk diffusion zone diameter (S. pneumoniae isolates; WCH77): 43 mm
disk diffusion zone diameter (S. pneumoniae isolates; WCH86): 38 mm
disk diffusion zone diameter (S. pneumoniae isolates; WCH89): 38 mm
disk diffusion zone diameter (S. pneumoniae isolates; WCH92): 38 mm
disk diffusion zone diameter (S. pneumoniae isolates; WCH137): 40 mm
disk diffusion zone diameter (S. pneumoniae isolates; WCH158): 42 mm
disk diffusion zone diameter (S. pneumoniae isolates; WCH184): 33 mm
disk diffusion zone diameter (S. pneumoniae isolates; WCH211): 39 mm
disk diffusion zone diameter (S. pneumoniae isolates; WU2): 38 mm
Resistance status to Ampicillin (S. pneumoniae isolates; isolate A66.1): Sensitive
Resistance status to Ampicillin (S. pneumoniae isolates; isolate D39): Sensitive
Resistance status to Ampicillin (S. pneumoniae isolates; isolate P21): Sensitive
Resistance status to Ampicillin (S. pneumoniae isolates; isolate WCH57): Sensitive
Resistance status to Ampicillin (S. pneumoniae isolates; isolate WCH158): Sensitive
Resistance status to Ampicillin (S. pneumoniae isolates; isolate WU-2): Sensitive

N=C(N/N=C/c1ccc(Cl)cc1)N/N=C/c1ccc(Cl)cc1 [NCL812, 1,3-bis[(E)-(4-chlorophenyl)methyleneamino]guanidine]
rise in bacterial numbers (E. faecalis USA01; 32 and 64 μg/mL, until the 6 h time point): ~1 log10
reduction in CFU/mL compared to the growth control (E. faecalis USA01; 2 h): 2 log10
reduction in CFU/mL compared to the original bacterial numbers (E. faecalis USA01; 2 h): greater than 1 log10
bacterial numbers versus growth control (E. faecalis USA01; at 24 h, all concentrations): increased to almost the same level as the growth control
decrease in MBC (S. pneumoniae strain D39): ~3 fold
reduction in bacterial numbers from initial numbers (S. aureus KC01; 2 h): ≥ 2.5 log10
reduction in comparison to the control at the same time point (S. aureus KC01; 2 h): > 3 log10
reduction in bacterial numbers (S. aureus KC01; 6 h incubation): ≥ 2 log10
numbers of bacteria versus control (S. aureus KC01; after 24 h): not significantly different to the control
inhibition of protein synthesis [1]: up to 97%
